# Source: patent US12077503B2, “Substituted cyclic amides and their use as herbicides” (FMC CORPORATION, priority 2015, dated 2024)
# Tests used:
# Type in all cases: in vivo
# [1] = system: Kochia (Kochia scoparia); test: Test A preemergence
# Summary of the method: (§1)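 Compounds were formulated in a non-phytotoxic solvent mixture with surfactant and applied as a preemergence directed soil spray after seeding, or sprayed postemergence over plants 2 to 10 cm tall at the one- to two-leaf stage. Evaluation after about 10 d compared treated with untreated controls, using a scale from 0 (no effect) to 100 (complete control).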
# [2] = system: barnyardgrass (Echinochloa crus-galli); test: Test A preemergence
# Summary of the method: as §1
# [3] = system: giant foxtail (Setaria faberii); test: Test A preemergence
# Summary of the method: as §1
# [4] = system: pigweed (Amaranthus retroflexus); test: Test A preemergence
# [5] = system: ragweed (common ragweed, Ambrosia elatior); test: Test A preemergence
# Summary of the method: as §1
# [6] = system: ryegrass, Italian (Italian ryegrass, Lolium multiflorum); test: Test A preemergence
# Summary of the method: as §1
# [7] = system: Galium (catchweed bedstraw, Galium aparine); test: Test A postemergence
# Summary of the method: as §1
# [8] = system: Kochia (Kochia scoparia); test: Test A postemergence
# Summary of the method: as §1
# [9] = system: barnyardgrass (Echinochloa crus-galli); test: Test A postemergence
# Summary of the method: as §1
# [10] = system: blackgrass (Alopecurus myosuroides); test: Test A postemergence
# Summary of the method: as §1
# [11] = system: corn (Zea mays); test: Test A postemergence
# Summary of the method: as §1
# [12] = system: giant foxtail (Setaria faberii); test: Test A postemergence
# Summary of the method: as §1
# [13] = system: pigweed (Amaranthus retroflexus); test: Test A postemergence
# Summary of the method: as §1
# [14] = system: ragweed (common ragweed, Ambrosia elatior); test: Test A postemergence
# Summary of the method: as §1
# [15] = system: ryegrass, Italian (Italian ryegrass, Lolium multiflorum); test: Test A postemergence
# Summary of the method: as §1
# [16] = system: wheat (Triticum aestivum); test: Test A postemergence
# Summary of the method: as §1
# [17] = system: lambsquarters (Chenopodium album); test: Test C preemergence; conditions: scale 0 to 100, 0 no effect, 100 complete control
# Excerpt: Seeds of plant species selected from blackgrass (Alopecurus myosuroides), ryegrass, Italian (Italian ryegrass, Lolium multiflorum), wheat (winter wheat, Triticum aestivum), Galium (catchweed bedstraw, Galium aparine), corn (Zea mays), crabgrass, large (large crabgrass, Digitaria sanguinalis), foxtail, giant (giant foxtail, Setaria faberii), johnsongrass (Sorghum halepense), lambsquarters (Chenopodium album), morningglory (Ipomoea coccinea), nutsedge, yellow (yellow nutsedge, Cyperus esculentus), pigweed (Amaranthus retroflexus), ragweed (common ragweed, Ambrosia elatior), soybean (Glycine max), barnyardgrass (Echinochloa crus-galli), oilseed rape (Brassica napus), waterhemp (common waterhemp, Amaranthus rudis) and velvetleaf (Abutilon theophrasti) were planted into a blend of loam soil and sand and treated preemergence with test chemicals formulated in a non-phytotoxic solvent mixture which included a surfactant.
# At the same time, plants selected from these crop and weed species and also Kochia (Kochia scoparia), oat, wild (wild oat, Avena fatua), and chickweed (common chickweed, Stellaria media) were planted in pots containing Sunshine Redi-Earth® planting medium comprising spaghnum peat moss, vermiculite, starter nutrients and dolomitic limestone and treated with postemergence applications of test chemicals formulated in the same manner. Plants ranged in height from 2 to 18 cm (1- to 4-leaf stage) for postemergence treatments. Treated plants and controls were maintained in a greenhouse for 13 to 15 d, after which time all species were compared to controls and visually evaluated. Plant response ratings, summarized in Table C, are based on a scale of 0 to 100 where 0 is no effect and 100 is complete control. A dash (-) response means no test result.
# [18] = system: barnyardgrass (Echinochloa crus-galli); test: Test B flooded paddy test; conditions: Echinochloa crus-galli, Flood, 250 g ai/ha; scale of 0 to 100 where 0 is no effect and 100 is complete control; read-out: Barnyardgrass plant response rating
# Summary of the method: (§2)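 Flooding to 3 cm over soil accompanied treatment, which consisted of adding compound to the standing water around 2-leaf plants; depth was then maintained. Visual assessment versus controls followed at 13 to 15 d (scale 0–100, 0 meaning no effect).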
# [19] = system: ducksalad (Heteranthera limosa); test: Test B flooded paddy test; conditions: Heteranthera limosa, Flood, 250 g ai/ha; scale of 0 to 100 where 0 is no effect and 100 is complete control; read-out: Ducksalad plant response rating
# Summary of the method: as §2
# [20] = system: rice (Oryra sativa); test: Test B flooded paddy test; conditions: Oryza sativa, Flood, 250 g ai/ha; scale of 0 to 100 where 0 is no effect and 100 is complete control; read-out: Rice plant response rating
# Summary of the method: as §2
# [21] = system: sedge, umbrella (small-flower umbrella sedge, Cyperus difformis); test: Test B flooded paddy test; conditions: Cyperus difformis, Flood, 250 g ai/ha; scale of 0 to 100 where 0 is no effect and 100 is complete control; read-out: Sedge, Umbrella plant response rating
# Summary of the method: as §2
# [22] = 125 g ai/ha, preemergence, 0 to 100 scale (0 no effect, 100 complete control)
# [23] = Preemergence, 500 g ai/ha, visual injury approx. 10 d
# [24] = 125 g ai/ha, postemergence, visual injury rating on 0 to 100 scale (0 no effect, 100 complete control), approx. 10 d
# [25] = 500 g ai/ha, postemergence, 0 to 100 scale, 0 no effect, 100 complete control
compound,measurement,setting,value
CN1CC(c2cccc(C(F)(F)F)c2)C(C)(C(=O)Nc2ccccc2F)C1=O (centres unmarked) [Compound 428],"Plant response rating, Kochia",[1]; [22],50
same,"Kochia plant response rating (0 to 100 scale, 0 is no effect, 100 is complete control)",[1]; [23],50
same,"Plant response rating, Barnyardgrass",[2]; [22],90
same,"Barnyardgrass plant response rating (0 to 100 scale, 0 is no effect, 100 is complete control)",[2]; [23],90
same,"Plant response rating, Foxtail, Giant",[3]; [22],90
same,"Foxtail, Giant plant response rating (0 to 100 scale, 0 is no effect, 100 is complete control)",[3]; [23],90
same,"Plant response rating, Pigweed",[4]; [22],0
same,"Pigweed plant response rating (0 to 100 scale, 0 is no effect, 100 is complete control)",[4]; [23],20
same,"Plant response rating, Ragweed",[5]; [22],0
same,"Ragweed plant response rating (0 to 100 scale, 0 is no effect, 100 is complete control)",[5]; [23],0
same,"Plant response rating, Ryegrass, Italian",[6]; [22],20
same,"Ryegrass, Italian plant response rating (0 to 100 scale, 0 is no effect, 100 is complete control)",[6]; [23],30
same,Galium plant response rating,[7]; [24],50
same,"Plant response rating, Galium",[7]; [25],60
same,Kochia plant response rating,[8]; [24],30
same,"Plant response rating, Kochia",[8]; [25],70
same,Barnyardgrass plant response rating,[9]; [24],90
same,"Plant response rating, Barnyardgrass",[9]; [25],90
same,Blackgrass plant response rating,[10]; [24],40
same,"Plant response rating, Blackgrass",[10]; [25],70
same,Corn plant response rating,[11]; [24],30
same,"Plant response rating, Corn",[11]; [25],60
same,"Foxtail, Giant plant response rating",[12]; [24],80
same,"Plant response rating, Foxtail, Giant",[12]; [25],90
same,Pigweed plant response rating,[13]; [24],0
same,"Plant response rating, Pigweed",[13]; [25],20
same,Ragweed plant response rating,[14]; [24],0
same,"Plant response rating, Ragweed",[14]; [25],0
same,"Ryegrass, Italian plant response rating",[15]; [24],30
same,"Plant response rating, Ryegrass, Italian",[15]; [25],30
same,Wheat plant response rating,[16]; [24],30
same,"Plant response rating, Wheat",[16]; [25],60
same,"Plant response rating, Lambsquarters",[17]; 31 g ai/ha,0
same,"Plant response rating, Lambsquarters",[17]; 62 g ai/ha,10
same,"Plant response rating, Lambsquarters",[17]; 125 g ai/ha,35
same,"Plant response rating, Lambsquarters",[17]; 250 g ai/ha,65
CN1C[C@H](c2ccc(C(F)(F)F)cc2)[C@@H](C(=O)Nc2ccccc2Br)C1=O [Compound 943],pest or weed control at 125 g/ha,"[1]; Bassia scoparia, pre-emergence, 240 h, 125 g ai/ha, Preemergence, visual injury rating after approximately 10 d, read-out: Kochia plant response rating (0 to 100 scale, 0 is no effect, 100 is complete control)",70%
same,pest or weed control at 500 g/ha,"[1]; Bassia scoparia, pre-emergence, 240 h, 500 g ai/ha, preemergence, visual injury rating about 10 d after treatment, 0 to 100 scale (0 no effect, 100 complete control), read-out: Kochia plant response rating",80%
same,pest or weed control at 125 g/ha,"[2]; Echinochloa crus-galli, pre-emergence, 240 h, 125 g ai/ha, Preemergence, visual injury rating after approximately 10 d, read-out: Barnyardgrass plant response rating (0 to 100 scale, 0 is no effect, 100 is complete control)",90%
same,pest or weed control at 500 g/ha,"[2]; Echinochloa crus-galli, pre-emergence, 240 h, 500 g ai/ha, preemergence, visual injury rating about 10 d after treatment, 0 to 100 scale (0 no effect, 100 complete control), read-out: Barnyardgrass plant response rating",90%
same,pest or weed control at 125 g/ha,"[3]; Setaria faberi, pre-emergence, 240 h, 125 g ai/ha, Preemergence, visual injury rating after approximately 10 d, read-out: Foxtail, Giant plant response rating (0 to 100 scale, 0 is no effect, 100 is complete control)",90%
same,pest or weed control at 500 g/ha,"[3]; Setaria faberi, pre-emergence, 240 h, 500 g ai/ha, preemergence, visual injury rating about 10 d after treatment, 0 to 100 scale (0 no effect, 100 complete control), read-out: Foxtail, Giant plant response rating",90%
same,pest or weed control at 125 g/ha,"[4]; Amaranthus retroflexus, pre-emergence, 240 h, 125 g ai/ha, Preemergence, visual injury rating after approximately 10 d, read-out: Pigweed plant response rating (0 to 100 scale, 0 is no effect, 100 is complete control)",40%
same,pest or weed control at 500 g/ha,"[4]; Amaranthus retroflexus, pre-emergence, 240 h, 500 g ai/ha, preemergence, visual injury rating about 10 d after treatment, 0 to 100 scale (0 no effect, 100 complete control), read-out: Pigweed plant response rating",50%
same,pest or weed control at 125 g/ha,"[5]; Ambrosia artemisiifolia, pre-emergence, 240 h, 125 g ai/ha, Preemergence, visual injury rating after approximately 10 d, read-out: Ragweed plant response rating (0 to 100 scale, 0 is no effect, 100 is complete control)",0%
same,pest or weed control at 500 g/ha,"[5]; Ambrosia artemisiifolia, pre-emergence, 240 h, 500 g ai/ha, preemergence, visual injury rating about 10 d after treatment, 0 to 100 scale (0 no effect, 100 complete control), read-out: Ragweed plant response rating",30%
same,pest or weed control at 125 g/ha,"[6]; Lolium multiflorum, pre-emergence, 240 h, 125 g ai/ha, Preemergence, visual injury rating after approximately 10 d, read-out: Ryegrass, Italian plant response rating (0 to 100 scale, 0 is no effect, 100 is complete control)",0%
same,pest or weed control at 500 g/ha,"[6]; Lolium multiflorum, pre-emergence, 240 h, 500 g ai/ha, preemergence, visual injury rating about 10 d after treatment, 0 to 100 scale (0 no effect, 100 complete control), read-out: Ryegrass, Italian plant response rating",50%
same,pest or weed control at 125 g/ha,"[7]; Galium, post-emergence, 240 h, 125 g ai/ha, Postemergence, visual injury after approximately 10 d, 0 to 100 scale where 0 is no effect and 100 is complete control, read-out: Plant response rating, Galium",70%
same,pest or weed control at 125 g/ha,"[8]; Bassia scoparia, post-emergence, 240 h, 125 g ai/ha, Postemergence, visual injury after approximately 10 d, 0 to 100 scale where 0 is no effect and 100 is complete control, read-out: Plant response rating, Kochia",30%
same,pest or weed control at 125 g/ha,"[9]; Echinochloa crus-galli, post-emergence, 240 h, 125 g ai/ha, Postemergence, visual injury after approximately 10 d, 0 to 100 scale where 0 is no effect and 100 is complete control, read-out: Plant response rating, Barnyardgrass",70%
same,pest or weed control at 125 g/ha,"[10]; Alopecurus myosuroides, post-emergence, 240 h, 125 g ai/ha, Postemergence, visual injury after approximately 10 d, 0 to 100 scale where 0 is no effect and 100 is complete control, read-out: Plant response rating, Blackgrass",40%
same,"Corn plant response rating (crop injury, 0 = no effect, 100 = complete kill) at 125 g/ha","[11]; Zea mays, post-emergence, 240 h, 125 g ai/ha, Postemergence, visual injury after approximately 10 d, 0 to 100 scale where 0 is no effect and 100 is complete control",20%
same,pest or weed control at 125 g/ha,"[12]; Setaria faberi, post-emergence, 240 h, 125 g ai/ha, Postemergence, visual injury after approximately 10 d, 0 to 100 scale where 0 is no effect and 100 is complete control, read-out: Plant response rating, Foxtail, Giant",90%
same,pest or weed control at 125 g/ha,"[13]; Amaranthus retroflexus, post-emergence, 240 h, 125 g ai/ha, Postemergence, visual injury after approximately 10 d, 0 to 100 scale where 0 is no effect and 100 is complete control, read-out: Plant response rating, Pigweed",40%
same,pest or weed control at 125 g/ha,"[14]; Ambrosia artemisiifolia, post-emergence, 240 h, 125 g ai/ha, Postemergence, visual injury after approximately 10 d, 0 to 100 scale where 0 is no effect and 100 is complete control, read-out: Plant response rating, Ragweed",0%
same,pest or weed control at 125 g/ha,"[15]; Lolium multiflorum, post-emergence, 240 h, 125 g ai/ha, Postemergence, visual injury after approximately 10 d, 0 to 100 scale where 0 is no effect and 100 is complete control, read-out: Plant response rating, Ryegrass, Italian",0%
same,plant injury at 125 g/ha,"[16]; Triticum aestivum, post-emergence, 240 h, 125 g ai/ha, Postemergence, visual injury after approximately 10 d, 0 to 100 scale where 0 is no effect and 100 is complete control, read-out: Plant response rating, Wheat",0%
same,pest or weed control at 250 g/ha,[18],0%
same,pest or weed control at 250 g/ha,[19],50%
same,pest or weed control at 250 g/ha,[20],0%
same,pest or weed control at 250 g/ha,[21],0%
